# Experiments:
# [1] = target: T1, undecaprenyl pyrophosphate synthase (UppS) (Escherichia coli, UniProt P60472); assay: biochemical; parameters: radiolabeled [14C]-IPP UppS assay, TLC quantification of [14C]-UPP; residual activity or IC50; conditions: read-out: % of control remaining
# T1 construct: gene ispU; N-terminal His6-tagged UppSEc
# T1 sequence (P60472 1-253): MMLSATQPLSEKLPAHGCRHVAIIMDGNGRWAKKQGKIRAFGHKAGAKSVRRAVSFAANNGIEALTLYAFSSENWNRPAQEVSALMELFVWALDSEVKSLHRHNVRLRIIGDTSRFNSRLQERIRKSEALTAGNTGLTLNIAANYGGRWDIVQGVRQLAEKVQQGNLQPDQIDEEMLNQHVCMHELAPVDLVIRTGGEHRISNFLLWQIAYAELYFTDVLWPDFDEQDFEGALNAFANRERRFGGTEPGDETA
# Method: The UppS enzymatic activity was determined by using a kinetics-based assay utilizing a radiolabeled substrate. The assay revolves on the measuring of UPP formation in the reaction mixture in a final volume of 40 μL. Stock solutions of all compounds (2 mM) were prepared in DMSO and the final concentration of DMSO in the assay was 5% (v/v). The enzyme was diluted in buffer A to appropriate concentration so that the consumption of the substrate in the assay is no higher than 30%. The reaction mixture consisted of 20 μL of 100 mM HEPES, pH 7.5, 50 mM KCl, 0.5 mM MgCl2, 1.5 μM FPP, 12 μM [^14C]-IPP ([^14C]-IPP; 289 Bq), 2 μL DMSO with or without the inhibitor and 18 μL of optimal enzyme solution. […] Reaction mixture was lyophilized and resuspended in 10 μL of purified water. The radiolabeled substrate, [^14C]-IPP, and the product, [^14C]UPP, were separated on a Silica gel 60 TLC plate using 1-propranol / ammonium hydroxide / water in ratio of 6/3/1 (v/v/v) as a mobile phase (Rf([^14C]–IPP) = 0.21, Rf[^14C]UPP = 0.56), and quantified with a radioactivity scanner (Rita Star, Raytest Isotopenmessgeräte GmbH, Straubenhardt, Germany). Residual activities (RAs) were calculated with respect to a control reaction without the tested compounds and with 5% DMSO. All the experiments were run in duplicate with standard deviations within ± 10%. The IC50 values represented the concentrations for which the RA was 50% and were determined by measuring the RAs at seven different compound concentrations. The 34 purchased compounds were tested for their inhibitory potencies against E. coli UppS using a radioactivity-based assay. In these test conditions, the [^14C]-UPP formation is observed thanks to a radiolabeled substrate ([^14C]-IPP) and quantified with a radioactivity scanner. The results are presented as RAs of UppS in the presence of 100 μM of each compound (Supplementary Table S1). […] Sodium risedronate was used as a positive control to enable the comparison of the purchased compounds to a known inhibitor and to confirm the results of the UppS inhibition assay. […] All three inhibitors are anthranilic acid derivatives with a larger hydrophobic moiety attached to the amide group via different linkers, 2-cyanoacryloyl for compounds 1 and 2 and 2-thioacetyl for compound 3.
# E. coli = assay: microbe, parasite or virus in culture; parameters: antibacterial MIC determination on wild-type strains; conditions: Escherichia coli, read-out: MIC E. coli
# Method: E. coli AcrAB-TolC is a tripartite multidrug efflux pump system that expels compounds form the cell and this represents one of the possible mechanisms of bacterial defence against xenobiotics ([Kim et al., 2015]). […] On the other hand, compound 2 inhibited bacterial growth in both E. coli BW25113 ΔtolC strains with or without permeable membrane (MIC = 0.5 μg/mL). The antibacterial activity in the efflux pump-deficient E. coli BW25113 ΔtolC strain is independent from the presence of polymyxine B. Therefore, it can be postulated on the basis of the evaluation of compound 2, that transport across E. coli cell membrane is possible. This compound therefore represents an interesting starting point for further development, for example computational searches of similar compounds and analog synthesis.
# S. aureus = assay: microbe, parasite or virus in culture; parameters: antibacterial MIC determination on wild-type strains; conditions: Staphylococcus aureus, read-out: MIC S. aureus
# [2] = target: T2, undecaprenyl pyrophosphate synthase (UppS) (Escherichia coli, UniProt P60472); assay: radiolabeled […]-IPP assay, TLC quantification of […]-UPP, IC50 from seven concentrations; assay type: biochemical
# T2 construct: gene ispU; N-terminal His6-tagged UppSEc
SMILES,remaining activity at 100 µM [1],MIC (E. coli),MIC (S. aureus),IC50 [2]
O=C(O)c1ccccc1C(=O)Nc1ccc(C(=O)N(c2ccccc2)c2ccc3ccccc3c2)cc1 [S2],58%,> 128 µg/mL,> 128 µg/mL,–
O=C(O)C1CCCCC1C(=O)Nc1ccc(N2CCN(c3cccc(Cl)c3Cl)CC2)cc1 (stereo not drawn) [S3],96%,> 128 µg/mL,> 128 µg/mL,–
CC(=O)c1ccc(NC(=O)C(Sc2ccc(NC(=O)c3ccccc3C(=O)O)cc2)c2ccccc2)cc1 (stereo not drawn) [S4],101%,> 128 µg/mL,> 128 µg/mL,–
O=C(Cc1ccccc1C(=O)O)Nc1ccn(Cc2ccccc2Cl)n1 [S5],115%,> 128 µg/mL,> 128 µg/mL,–
O=C(O)C1CCCCC1C(=O)Nc1ccc(N2CCN(Cc3ccccc3)CC2)cc1 (stereo not drawn) [S6],53%,> 128 µg/mL,> 128 µg/mL,–
CCCn1cc(NC(=O)CNS(=O)(=O)c2cccc3c(N(C)C)cccc23)c(C(=O)O)c1 [S7],85%,> 128 µg/mL,> 128 µg/mL,–
O=C(O)CCC(NC(=O)C(=Cc1cn(-c2ccccc2)nc1-c1cccnc1)NC(=O)c1ccccc1)C(=O)O (stereo not drawn) [S8],92%,> 128 µg/mL,> 128 µg/mL,–
Cc1ccc(Nc2nccc(Nc3ccc(O)c(C(=O)O)c3)n2)c(C)c1 [S9],72%,> 128 µg/mL,> 128 µg/mL,–
O=C(O)c1ccccc1C(=O)Nc1ccc(C(=O)N(c2ccccc2)c2cccc3ccccc23)cc1 [S11],60%,> 128 µg/mL,> 128 µg/mL,–
Cc1sc(NC(=O)c2ccccc2C(=O)O)nc1-c1ccc(-c2ccccc2)cc1 [S12],120%,> 128 µg/mL,> 128 µg/mL,–
Cc1cc(C)n(CCCNc2ccc(C(=O)c3ccccc3C(=O)O)cc2[N+](=O)[O-])n1 [S13],92%,> 128 µg/mL,> 128 µg/mL,–
O=C(Nc1ccccc1C(=O)O)c1cccc(NC(=O)C(c2ccccc2)c2ccccc2)c1 [S14],101%,> 128 µg/mL,128 µg/mL,–
O=C(CN1CCCC1C(=O)O)NCc1ccc(COc2ccccc2)cc1 (stereo not drawn) [S15],124%,> 128 µg/mL,> 128 µg/mL,–
Cc1ccc(N2CCN(C(=O)c3ccccc3NC(=O)C3CC=CCC3C(=O)O)CC2)cc1 (stereo not drawn) [S16],104%,> 128 µg/mL,> 128 µg/mL,–
Cc1ccc(-n2c(SCC(=O)Nc3ccccc3C(=O)O)nnc2-c2cc3ccccc3o2)cc1 [S18],122%,> 128 µg/mL,> 128 µg/mL,–
O=C(O)C1CC=CCC1C(=O)Nc1ccccc1C(=O)N1CCN(c2ccc(F)cc2)CC1 (stereo not drawn) [S19],99%,> 128 µg/mL,> 128 µg/mL,–
O=C(O)c1cccc(C(=O)NCCc2nc3ccccc3n2C(F)F)c1 [S20],168%,> 128 µg/mL,> 128 µg/mL,–

SMILES,remaining activity at 100 µM [1],MIC (E. coli),MIC (S. aureus),IC50 [2]
COc1ccc(C(=O)Nc2ccc(N3CCN(c4ccccc4F)CC3)cc2C(=O)O)cc1 [S21],74%,> 128 µg/mL,> 128 µg/mL,–
O=C(Nc1ccc(COCc2ccccc2)cc1)c1ccnc(C(=O)O)c1 [S22],93%,> 128 µg/mL,> 128 µg/mL,–
Cc1ccc(OCCNC(=O)C2CC=CCC2C(=O)O)cc1 (stereo not drawn) [S23],117%,> 128 µg/mL,> 128 µg/mL,–
O=C(COc1ccccc1)Nc1ccc(N2CCN(c3ccc(Cl)cc3)CC2)cc1C(=O)O [S25],121%,> 128 µg/mL,64 µg/mL,–
CCOc1ccc(N(CC(=O)Nc2ccccc2C(=O)O)S(=O)(=O)c2ccc(Cl)cc2)cc1 [S26],102%,> 128 µg/mL,128 µg/mL,–
O=C(O)c1ccccc1C(=O)NCCC(c1ccc(F)cc1)c1ccco1 (stereo not drawn) [S27],99%,> 128 µg/mL,> 128 µg/mL,–
CCCc1ccc(S(=O)(=O)Nc2ccc(N3CCN(C4CCCCC4)CC3)cc2C(=O)O)cc1 [S28],113%,> 128 µg/mL,> 128 µg/mL,–
O=C(Cn1cc(-c2ccc(Cl)cc2)ncc1=O)NC(C(=O)O)c1ccccc1 (stereo not drawn) [S29],96%,> 128 µg/mL,> 128 µg/mL,–
O=C(NCCc1ccccc1)c1ccc(NC(=O)c2nccnc2C(=O)O)cc1 [S30],122%,> 128 µg/mL,> 128 µg/mL,–
Cc1cccc(N2CCN(c3ccc(NC(=O)C(C)C)c(C(=O)O)c3)CC2)c1 [S31],125%,> 128 µg/mL,> 128 µg/mL,–
Cc1cccc(C(=O)O)c1NC(=O)COc1ccc(Cl)cc1 [S32],122%,> 128 µg/mL,> 128 µg/mL,–
COC(=O)C(NC(=O)c1ccccc1C(=O)O)c1ccc(OCc2ccccc2)c(OC)c1 (stereo not drawn) [S33],65%,> 128 µg/mL,> 128 µg/mL,–
CCCCCCCCCCCCN(CP(=O)(O)O)CP(=O)(O)O [S34],147%,> 128 µg/mL,128 µg/mL,–
N#C/C(=C\c1cn(Cc2cccc3ccccc23)c2ccccc12)C(=O)Nc1ccccc1C(=O)O [compound 1],–,> 128 µg/mL,> 128 µg/mL,45 µM
N#C/C(=C\c1cccc(OCc2ccc(F)cc2)c1)C(=O)Nc1ccccc1C(=O)O [compound 2],–,> 128 µg/mL,> 128 µg/mL,25 µM
O=C(CSc1nnc(-c2cc3ccccc3o2)n1-c1ccccc1)Nc1ccccc1C(=O)O [compound 3],–,> 128 µg/mL,> 128 µg/mL,24 µM

# Source: article PMC6339874, “Anthranilic Acid Inhibitors of Undecaprenyl Pyrophosphate Synthase (UppS), an Essential Enzyme for Bacterial Cell Wall Biosynthesis” (Frontiers in Microbiology, 2019)
